Patent US20020028836A1, “Potassium channel openers” (priority 2000, published 2002)
Like-named read-outs stand apart in the source and are kept apart here.

Assays:
[1] = test system: primary cultured guinea-pig urinary bladder (GPB) cells; experiment: Membrane hyperpolarization (MHP) assay, DiBAC(4)3 / FLIPR; assay type: cell-based; conditions: for EC50: concentration that elicits 50% of the maximal response for the test sample
Experimental: Compounds were evaluated for potassium channel opening activity using primary cultured guinea-pig urinary bladder (GPB) cells.
For the preparation of urinary bladder smooth muscle cells, urinary bladders were removed from male guinea-pigs (Hartley, Charles River, Wilmington, Mass.) weighing 300-400 g and placed in ice-cold Ca^2+-free Krebs solution (Composition, mM: KCl, 2.7; KH2PO4, 1.5; NaCl, 75; Na2HPO4, 9.6; Na2HPO4.7H2O, 8; MgSO4, 2; glucose, 5; HEPES, 10; pH 7.4). Cells were isolated by enzymatic dissociation as previously described with minor modifications (Klockner, U. and Isenberg, G., Pflugers Arch. (1985), 405, 329-339), hereby incorporated by reference. The bladder was cut into small sections and incubated in 5 mL of the Kreb's solution containing I mg/mL collagenase (Sigma, St. Louis, Mo.) and 0.2 mg/mL pronase (Calbiochem, La Jolla, Calif.) with continuous stirring in a cell incubator for 30 minutes. The mixture was then centrifuged at 1300×g for 5 minutes, and the pellet resuspended in Dulbecco's PBS (GIBCO, Gaithersburg, Md.) and recentrifuged to remove residual enzyme. The cell pellet was resuspended in 5 mL growth media (composition: Dulbecco's modified Eagle's medium supplemented with 10% fetal bovine serum, 100 units/mL penicillin, 100 units/mL streptomycin and […] amphotericin B) and further dissociated by pipetting the suspension through a flame-polished Pasteur pipette and passing it through a polypropylene mesh membrane (Spectrum, Houston, Tex.). The cell density was adjusted to 100,000 cells/mL by resuspension in growth media. Cells were plated in clear-bottomed black 96-well plates (Packard) for membrane potential studies at a density of 20,000 cells/well and maintained in a cell incubator with 90% air: 10% CO2 until confluent. Cells were confirmed to be of smooth muscle type by cytoskeletal staining using a monoclonal mouse anti human-α-smooth muscle actin (Biomeda, Foster City, Calif.).
Functional activity at potassium channels was measured by evaluating changes in membrane potential using the bis-oxonol dye DiBAC(4) (Molecular Probes) in a 96-well cell-based kinetic assay system, Fluorescent Imaging Plate Reader (FLIPR) (K. S. Schroeder et al., J. Biomed. Screen., v. 1 pp. 75-81 (1996)), hereby incorporated by reference. DiBAC(4)3 is an anionic potentiometric probe which partitions between cells and extracellular solution in a membrane potential-dependent manner. With increasing membrane potential (for example, K^+ depolarization), the probe further partitions into the cell; this is measured as an increase in fluorescence due to dye interaction with intracellular lipids and proteins. Conversely, decreasing membrane potential (hyperpolarization by potassium channel openers) evokes a decrease in fluorescence.
Confluent guinea-pig urinary bladder cells cultured in black clear-bottomed 96-well plates were rinsed twice with […] assay buffer (composition, mM: HEPES, 20; NaCl, 120; KCl, 2; CaCl2, 2; MgCl2, 1; glucose, 5; pH 7.4 at 25° C.) containing 5 μM DiBAC(4)3 and incubated with […] of the buffer in a cell incubator for 30 minutes at 37° C. to ensure dye distribution across the membrane. After recording the baseline fluorescence for 5 minutes, the reference or test compounds, prepared at 10 times the concentration in the assay buffer, were added directly to the wells. Changes in fluorescence were monitored for an additional 25 minutes. Hyperpolarization responses were corrected for any background noise and were normalized to the response observed with 10 μM of the reference compound P1075 (assigned as 100%), a potent opener of smooth muscle KATP channels (Quast et al., Mol. Pharmacol., v. 43 pp. 474-481 (1993)), hereby incorporated by reference.
Routinely, five concentrations of P1075 or test compounds (log or half-log dilutions) were evaluated and the maximal steady-state hyperpolarization values (expressed as % relative to P1075) plotted as a function of concentration. […]

[2] = test system: tissue strips obtained from Landrace pig bladders; experiment: Functional potassium channel opening activity in isolated bladder strips (field-stimulated twitch); conditions: for Index: ED50 for P1075 divided by ED50 for the test agonist in a given tissue, averaged; for EC50: amount of agent necessary to cause 50% of the agent's maximal response, read-out: ED50 (the source's name); for Emax / Efficacy (% P1075): maximal efficacy relative to P1075, field stimulation 0.05 Hz, 0.5 ms, 20 volts
Procedure, shortened: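 Mucosa-free female Landrace pig bladder strips in Krebs Ringer bicarbonate (pH 7.4, 37° C., 0.004 mM propranolol), 1.0 g preload, field-stimulated at 0.05 Hz, 0.5 ms, 20 V for twitch. Cumulative concentration-response curves; maximal efficacy as % of P1075, ED50 fitted, potency index = P1075 ED50/test ED50 per tissue, averaged.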

[3] = Cavia porcellus, maximal steady-state hyperpolarization, normalized to response with 10 μM P1075 (100%)

Row | Structure (SMILES) | EC50 ([1]; Cavia porcellus) | EC50 ([2]; Sus scrofa) | EC50 [1] | EC50 [2] | Emax [1, 3] | Index [2] | Emax ([2]; Sus scrofa) | Maximal Response (% P1075) ([1]; maximal steady-state hyperpolarization, normalized to response with 10 μM P1075 (100%)) | Efficacy (% P1075) [2]
1 | Cc1ccc(C(=O)NC(NC(=NC#N)Nc2ccccc2F)C(Cl)(Cl)Cl)cc1 (stereo not drawn) [Example 47, 4-methyl-N-(2,2,2-trichloro-1-{[(cyanoimino)(2-fluoroanilino)methyl]amino}ethyl)benzamide] | 0.06 µM | 36 µM | – | – | 98% | 0.019 | 67% | – | –
2 | O=C(Nc1cccnc1)NC(NC(=O)c1ccccc1)C(Cl)(Cl)Cl (stereo not drawn) [Example 40, N-(2,2,2-trichloro-1-{[(3-pyridinylamino)carbonyl]amino}ethyl)benzamide] | 0.12 µM | 15 µM | – | – | 100% | 0.007 | 100% | – | –
3 | CCC(CC)(CCC#N)C(NC(=O)c1ccc(Cl)cc1)NC(=NC#N)Nc1cccnc1 (single isomer, unassigned; (+)) [Example 87, (+) 4-chloro-N-(4-cyano-1-{[(cyanoimino)(3-pyridinylamino)methyl]amino}-2,2-diethylbutyl)benzamide] | – | – | 0.52 µM | 7.6 µM | – | 0.02 | – | 85 % P1075 | 67 % P1075
4 | C=CCC(C)(C)C(NC(=O)c1ccc(Cl)cc1)NC(=NC#N)Nc1cccnc1 (single isomer, unassigned; (-)) [Example 90, (−) 4-chloro-N-(1-{[(cyanoimino)(3-pyridinylamino)methyl]amino}-2,2-dimethyl-4-pentenyl)benzamide] | – | 0.42 µM | 0.17 µM | – | 55% | 0.420 | 44% | – | –
5 | C=CC(C)(C)CC(NC(=O)c1ccc(Cl)cc1)NC(=NC#N)Nc1cccnc1 (stereo not drawn) [Example 92, 4-chloro-N-(1-{[(cyanoimino)(3-pyridinylamino)methyl]amino}-3,3-dimethyl-4-pentenyl)benzamide] | 0.25 µM | 1.8 µM | – | – | 71% | 0.047 | 76% | – | –
6 | Cc1ccc(C(=O)N[C@H](NC(=S)Nc2cccnc2)C(C)(C)C)cc1 [Example 23, N-((1R)-2,2-dimethyl-1-{[(3-pyridinylamino)carbothioyl]amino}propyl)-4-methylbenzamide] | 3.96 µM | 16 µM | – | – | 66% | 0.009 | 100% | – | –
7 | Cc1ccc(C(=O)NC(NC(=NC#N)Nc2cccnc2)C(Cl)(Cl)Cl)cc1 (stereo not drawn) [Example 44, 4-methyl-N-(2,2,2-trichloro-1-{[(cyanoimino)(3-pyridinylamino)methyl]amino}ethyl)benzamide] | 0.04 µM | 2 µM | – | – | 103% | 0.040 | 95% | – | –
8 | CC(C)(C)C(NC(=O)c1ccc(Cl)cc1)NC(=N[N+](=O)[O-])Nc1cccnc1 (stereo not drawn) [Example 123, 4-chloro-N-(1-{[(nitroimino)(3-pyridinylamino)methyl]amino}-2,2-dimethylpropyl)benzamide] | 0.85 µM | 10 µM | – | – | 90% | 0.028 | 63% | – | –
9 | C=CC(C)(C)CC(NC(=O)c1ccc(Cl)cc1)NC(=N[N+](=O)[O-])Nc1cccnc1 (stereo not drawn) [Example 133, 4-chloro-N-(1-{[(nitroimino)(3-pyridinylamino)methyl]amino}-3,3-dimethyl-4-pentenyl)benzamide] | 0.039 µM | 8.4 µM | – | – | 106% | 0.039 | 58% | – | –
10 | Cc1ccc(C(=O)N[C@@H](NC(=S)Nc2cccnc2)C(C)(C)C)cc1 [Example 24, N-((1S)-2,2-dimethyl-1-{[(3-pyridinylamino)carbothioyl]amino}propyl)-4-methylbenzamide] | 0.08 µM | 17 µM | – | – | 93% | 0.007 | 100% | – | –
11 | CC(C)(C)C(NC(=O)c1ccc(I)cc1)NC(=NC#N)Nc1cccnc1 (stereo not drawn) [Example 103, N-(1-{[(cyanoimino)(3-pyridinylamino)methyl]amino}-2,2-dimethylpropyl)-4-iodobenzamide] | 0.05 µM | 2.4 µM | – | – | 103% | 0.450 | 83% | – | –

More lines, in order of falling EC50 ([1]; Cavia porcellus), values ahead:

Row | EC50 ([1]; Cavia porcellus) | EC50 ([2]; Sus scrofa) | EC50 [1] | EC50 [2] | Structure (SMILES) | Emax [1, 3] | Index [2] | Emax ([2]; Sus scrofa) | Maximal Response (% P1075) ([1]; maximal steady-state hyperpolarization, normalized to response with 10 μM P1075 (100%)) | Efficacy (% P1075) [2]
12 | 0.63 µM | 12 µM | – | – | CC(C)(C)C(NC(=O)c1ccc(Cl)cc1F)NC(=NC#N)Nc1cccnc1 (stereo not drawn) [Example 106, 4-chloro-N-(1-{[(cyanoimino)(3-pyridinylamino)methyl]amino}-2,2-dimethylpropyl)-2-fluorobenzamide] | 85% | 0.010 | 69% | – | –
13 | 0.22 µM | 12 µM | – | – | Cc1ccc(C(=O)NC(NC(=S)Nc2cccc([N+](=O)[O-])c2)c2ccccc2)cc1 (stereo not drawn) [Example 33, 4-methyl-N-[{[(3-nitroanilino)carbothioyl]amino}(phenyl)methyl]benzamide] | 102% | 0.027 | 80% | – | –
14 | 0.11 µM | – | – | 9.3 µM | CC(C)(C)CC(NC(=O)c1ccc(Cl)cc1)NC(=N[N+](=O)[O-])Nc1cccnc1 (stereo not drawn) [Example 124, 4-chloro-N-(1-{[(nitroimino)(3-pyridinylamino)methyl]amino}-3,3-dimethylbutyl)benzamide] | 98% | 0.012 | – | – | 47 % P1075
15 | 0.1 µM | 17 µM | – | – | Cc1ccccc1C(=O)NC(NC(=NC#N)Nc1cccnc1)C(Cl)(Cl)Cl (stereo not drawn) [Example 50, 2-methyl-N-(2,2,2-trichloro-1-{[(cyanoimino)(3-pyridinylamino)methyl]amino}ethyl)benzamide] | 92% | 0.007 | 90% | – | –
16 | 0.09 µM | 21 µM | – | – | O=C(NC(NC(=S)Nc1ccccc1F)C(F)(F)F)c1ccc(Cl)cc1 (stereo not drawn) [Example 21, 4-chloro-N-(2,2,2-trifluoro-1-{[(2-fluoroanilino)carbothioyl]amino}ethyl)benzamide] | 96% | 0.014 | 86% | – | –
17 | 0.08 µM | 17 µM | – | – | Cc1ccc(C(=O)NC(NC(=S)Nc2ccccc2)C(F)(F)F)cc1 (stereo not drawn) [Example 9, N-{1-[(anilinocarbothioyl)amino]-2,2,2-trifluoroethyl}-4-methylbenzamide] | 104% | 0.011 | 91% | – | –
18 | 0.04 µM | 3 µM | – | – | N#CN=C(Nc1cccnc1)NC(NC(=O)c1ccccc1)C(Cl)(Cl)Cl (stereo not drawn) [Example 49, N-(2,2,2-trichloro-1-{[(cyanoimino)(3-pyridinylamino)methyl]amino}ethyl)benzamide] | 92% | 0.031 | 100% | – | –
